According to ChEMBL document CHEMBL6153093, “Aurovertins from a Marine-Derived Penicillium Species and Nonenzymatic Reactions in Their Formation” (J Nat Prod, 2025):
Calls of active or inactive are those of the source. The rule behind the calls is not given here.

What was measured:
Pseudomonas aeruginosa = experiment: Antibacterial activity against Pseudomonas aeruginosa ATCC 10145 at 0.1 mg/mL incubated for 12 hrs by agar dilution method; assay type: functional, organism-based
Escherichia coli = experiment: Antibacterial activity against Escherichia coli ATCC 11775 at 0.1 mg/mL incubated for 12 hrs by agar dilution method; assay type: functional, organism-based
Staphylococcus aureus [1] = experiment: Antibacterial activity against Staphylococcus aureus ATCC 6538 at 0.1 mg/mL incubated for 12 hrs by agar dilution method; assay type: functional, organism-based
Staphylococcus aureus [2] = experiment: Antibacterial activity against methicillin-resistant Staphylococcus aureus subsp. aureus ATCC 43300 at 0.1 mg/mL incubated for 12 hrs by agar dilution method; assay type: functional, organism-based
Candida albicans = experiment: Antifungal activity against Candida albicans ATCC 10231 at 0.1 mg/mL incubated for 12 hrs by agar dilution method; assay type: functional, organism-based
Nakaseomyces glabratus = experiment: Antifungal activity against Candida glabrata ATCC 2001 at 0.1 mg/mL incubated for 12 hrs by agar dilution method; assay type: functional, organism-based
A549 = experiment: Cytotoxicity against human A549 cells incubated for 48 hrs by CCK8 assay; assay type: functional, cell-based
PC-9 = experiment: Cytotoxicity against human PC-9 cells incubated for 48 hrs by CCK8 assay; assay type: functional, cell-based
L02 = experiment: Cytotoxicity against human L02 cells incubated for 48 hrs by CCK8 assay; assay type: toxicity, cell-based; details: l02, 48 h
HCT-116 = experiment: Cytotoxicity against human HCT-116 cells incubated for 48 hrs by CCK8 assay; assay type: functional, cell-based

## COc1cc(=O)oc(/C=C/C=C/C=C/[C@]2(C)O[C@]3(C)[C@@H](O)[C@@](C)(O[C@@H]3C)C2=O)c1C
Pseudomonas aeruginosa
  Activity: inactive
Escherichia coli
  Activity: inactive
Staphylococcus aureus [1]
  Activity: inactive
Staphylococcus aureus [2]
  Activity: inactive
Candida albicans
  Activity: inactive
Nakaseomyces glabratus
  Activity: inactive
A549
  Activity: inactive
PC-9
  Activity: inactive
L02
  Activity: Non-toxic

## COc1cc(=O)oc(/C=C/C=C/C=C/C(C)=C/[C@]2(C)O[C@H](C)[C@](C)(O)[C@H]2O)c1C
Pseudomonas aeruginosa
  Activity: inactive
Escherichia coli
  Activity: inactive
Staphylococcus aureus [1]
  Activity: inactive
Staphylococcus aureus [2]
  Activity: inactive
Candida albicans
  Activity: inactive
Nakaseomyces glabratus
  Activity: inactive
A549
  Activity: inactive
L02
  Activity: Non-toxic
HCT-116
  Activity: inactive

## COc1cc(=O)oc(\C=C/C=C/C=C/[C@]2(C)O[C@]3(C)[C@@H](O)[C@@](C)(O[C@@H]3C)[C@@H]2O)c1C
Pseudomonas aeruginosa
  Activity: inactive
Escherichia coli
  Activity: inactive
Staphylococcus aureus [1]
  Activity: inactive
Staphylococcus aureus [2]
  Activity: inactive
Candida albicans
  Activity: inactive
Nakaseomyces glabratus
  Activity: inactive
A549
  Activity: inactive
PC-9
  Activity: inactive
L02
  Activity: Non-toxic

## COc1cc(=O)oc(/C=C/C=C/C=C/[C@@]2(C)O[C@]3(C)[C@@H](O)[C@@](C)(O[C@@H]3C)C2=O)c1C
Pseudomonas aeruginosa
  Activity: inactive
Escherichia coli
  Activity: inactive
Staphylococcus aureus [1]
  Activity: inactive
Staphylococcus aureus [2]
  Activity: inactive
Candida albicans
  Activity: inactive
Nakaseomyces glabratus
  Activity: inactive
A549
  Activity: inactive
PC-9
  Activity: inactive
L02
  Activity: Non-toxic

## COc1cc(=O)oc(/C=C/C=C/C=C\[C@@]2(C)O[C@]3(C)[C@@H](O)[C@](C)(O[C@@H]3C)[C@@H]2O)c1C
Pseudomonas aeruginosa
  Activity: inactive
Escherichia coli
  Activity: inactive
Staphylococcus aureus [1]
  Activity: inactive
Staphylococcus aureus [2]
  Activity: inactive
Candida albicans
  Activity: inactive
Nakaseomyces glabratus
  Activity: inactive
A549
  Activity: inactive
PC-9
  Activity: inactive
L02
  Activity: Non-toxic

## COc1cc(=O)oc(\C=C/C=C/C=C/C(C)=C/[C@]2(C)O[C@H](C)[C@](C)(O)[C@H]2O)c1C
Pseudomonas aeruginosa
  Activity: inactive
Escherichia coli
  Activity: inactive
Staphylococcus aureus [1]
  Activity: inactive
Staphylococcus aureus [2]
  Activity: inactive
Candida albicans
  Activity: inactive
Nakaseomyces glabratus
  Activity: inactive
A549
  Activity: inactive
L02
  Activity: Non-toxic
HCT-116
  Activity: inactive

## COc1cc(=O)oc(/C=C/C=C/C=C/C(C)=C\[C@]2(C)O[C@H](C)[C@](C)(O)[C@H]2O)c1C
Pseudomonas aeruginosa
  Activity: inactive
Escherichia coli
  Activity: inactive
Staphylococcus aureus [1]
  Activity: inactive
Staphylococcus aureus [2]
  Activity: inactive
Candida albicans
  Activity: inactive
Nakaseomyces glabratus
  Activity: inactive
A549
  Activity: inactive
L02
  Activity: Non-toxic
HCT-116
  Activity: inactive

## COc1cc(=O)oc(/C=C/C=C/C=C/[C@]2(C)O[C@]3(C)[C@@H](O)[C@@](C)(O[C@@H]3C)[C@H]2O)c1C
Pseudomonas aeruginosa
  Activity: inactive
Escherichia coli
  Activity: inactive
Staphylococcus aureus [1]
  Activity: inactive
Staphylococcus aureus [2]
  Activity: inactive
Candida albicans
  Activity: inactive
Nakaseomyces glabratus
  Activity: inactive
A549
  Activity: inactive
PC-9
  Activity: inactive
L02
  Activity: Non-toxic

## COc1cc(=O)oc(/C=C/C=C/C=C/[C@@]2(C)O[C@@]3(C)[C@@H](C)O[C@](C)(C2=O)[C@H]3O)c1C
Pseudomonas aeruginosa
  Activity: inactive
Escherichia coli
  Activity: inactive
Staphylococcus aureus [1]
  Activity: inactive
Staphylococcus aureus [2]
  Activity: inactive
Candida albicans
  Activity: inactive
Nakaseomyces glabratus
  Activity: inactive
A549
  Activity: inactive
PC-9
  Activity: inactive
L02
  Activity: Non-toxic

## COc1cc(=O)oc(/C=C/C=C/C=C\[C@]2(C)O[C@]3(C)[C@@H](O)[C@](C)(O[C@@H]3C)[C@@H]2O)c1C
Pseudomonas aeruginosa
  Activity: inactive
Escherichia coli
  Activity: inactive
Staphylococcus aureus [1]
  Activity: inactive
Staphylococcus aureus [2]
  Activity: inactive
Candida albicans
  Activity: inactive
Nakaseomyces glabratus
  Activity: inactive
A549
  Activity: inactive
PC-9
  Activity: inactive
L02
  Activity: Non-toxic

## COc1cc(=O)oc(/C=C/C=C/C=C/[C@@]2(C)O[C@]3(C)[C@@H](O)[C@](C)(O[C@@H]3C)[C@H]2O)c1C
Pseudomonas aeruginosa
  Activity: inactive
Escherichia coli
  Activity: inactive
Staphylococcus aureus [1]
  Activity: inactive
Staphylococcus aureus [2]
  Activity: inactive
Candida albicans
  Activity: inactive
Nakaseomyces glabratus
  Activity: inactive
A549
  Activity: inactive
PC-9
  Activity: inactive
L02
  Activity: Non-toxic

## COc1cc(=O)oc(/C=C/C=C/C=C/[C@]2(C)O[C@]3(C)[C@@H](O)[C@@](C)(O[C@@H]3C)[C@@H]2O)c1C
Pseudomonas aeruginosa
  Activity: inactive
Escherichia coli
  Activity: inactive
Staphylococcus aureus [1]
  Activity: inactive
Staphylococcus aureus [2]
  Activity: inactive
Candida albicans
  Activity: inactive
Nakaseomyces glabratus
  Activity: inactive
A549
  Activity: inactive
PC-9
  Activity: inactive
L02
  Activity: Non-toxic
